Earlier results in patent publication US10493089B2, “Solid composition comprising amorphous sofosbuvir” (priority 2014, dated 2019).

CC(C)OC(=O)[C@H](C)N[P@](=O)(OC[C@H]1O[C@@H](n2ccc(=O)[nH]c2=O)[C@](C)(F)[C@@H]1O)Oc1ccccc1 [Amorphous sofosbuvir]
relative humidity at which it deliquesces (amorphous form compared to crystalline forms): above 50%

CC(C)OC(=O)[C@H](C)N[P@](=O)(OC[C@H]1O[C@@H](n2ccc(=O)[nH]c2=O)[C@](C)(F)[C@@H]1O)Oc1ccccc1 [sofosbuvir, (S)-isopropyl 2-(((S)-(((2R,3R,4R,5R)-5-(2,4-dioxo-3,4-dihydropyrimidin-1(2H)-yl)-4-fluoro-3-hydroxy-4-methyltetrahydrofuran-2-yl)methoxy)(phenoxy)phosphoryl)amino)propanoate]
behaviour under stress conditions (40° C., relative humidity 75%): deliquesces after a few hours
